Reference: patent US9422324B2, “6-substituted demethyl-estradiol derivatives as selective ER-β agonists” (priority 2010, dated 2016)

Columns and labels:
ERβ = ERβ (Homo sapiens (Human), UniProt Q92731); experiment: Luciferase reporter assay in MDA-MB-231 cells transfected with ERα or ERβ; type: cell-based; conditions: MDA-MB-231, 24 hours; relative to B and I; from FIGS. 2 and 3 and Table 1
Procedure: Response of I and B on ERα and ERβ is measured by a luciferase assay. MDA-MB-231 cells are transiently transfected with expression vectors encoding either ERα or ERβ and co-transfected with a luciferase reporter construct. Cells are treated for 24 hours at […] with increasing amounts of test article.

TREK1 = experiment: Expression profiling (Agilent microarray), TREK1 gene transcription in tumor cell lines; type: cell-based, human; conditions: 24 hours
Procedure: (§1) The study includes three human tumor cell lines: A549, Panc-1, and SK-OV-3. The lines are each grown in two flasks cultured to roughly 40% confluence. One of the flasks is treated by addition of drug to the culture media at a various concentrations. The other, mock treated, flask is treated only with the vehicle used to solubilize and deliver the drug. RNA extracted from the pairs of treated and untreated samples is subjected to microarray analysis on Agilent Whole Human Genome Microarrays (G4112F). Each analysis reports the difference in abundance of messenger RNAs for each of the 41,000 specific mRNA detectors on the array. This direct comparison of the treated versus untreated samples for each cell line provides extremely sensitive detection of changes in mRNA abundance resulting from the drug treatment. As each cell line comparison is self-normalized, the results can be compared across the samples with high confidence.
(§2) Three human tumor cell lines, A549, Panc-1, and SK-OV-3, are each grown in two flasks cultured to roughly 40% confluence. One of the flasks is treated by addition of compound 1 to the culture media at concentrations according to Table 1 above. The other, mock treated, flask is treated only with the vehicle used to solubilize and deliver the drug. All flasks are cultured for a further 24 hours, and then the cells are scraped free and washed in ice-cold PBS, then collected by centrifugation. The harvested cells are immediately frozen, and stored at −80° C. or colder. It is visually noticeable that the treated cells yielded less mass than the untreated cells.
(§3) Total RNA is prepared from the frozen tissue samples using Trizol-based cell lysis followed by 65° C. hot phenol extraction and RNeasy chromatography purification. The purified RNA samples are analyzed spectrophotometrically. The concentration of RNA is determined by measuring the absorbance at 260 nm (A260). Given an absorbance of 1 unit at 260 nm corresponds to […].
(§4) All RNAs are labeled using 1 microgram of RNA as input to an Agilent Low Input Labeling reaction.
(§5) Test RNA is labeled with Cy5 (650 nm emitter) and reference RNA is labeled with Cy3 (550 nm emitter) nucleotides. Labeling, hybridizations and subsequent washings are carried out on Agilent H1Av2 human expression chips. The resulting hybridized chips are scanned on an Agilent microarray scanner, and intensity information for each detector spot is extracted from the scanned image using Agilent feature extraction software. The set of data images and extracted measurements from each image are supplied.
(§6) The data reported are the red (treated) and green (untreated) background-subtracted signals. This is the least modified form of the data. A background “surface” is estimated across the slide, based on numerous probes that are not complementary to human DNA. These serve as estimators of both non-specific binding of labeled cRNA to array surfaces and non-specific binding of labeled cRNA to the immobilized DNA oligomers. Using this information, local noise around each probe is estimated and this is subtracted from the signal found at the area of oligonucleotide deposition for each particular probe feature on the array (gBGSubSignal, rBGSubSignal). The ratio of signal from the RNA of the treated cell and the RNA of the untreated cell is reported both as a direct ratio and as the log2 ratio (Ratio, Log2Ratio).
(§7) After the ratios have been calculated for the normalized data, the various control and duplicate samples are analyzed to build a model of how reproducible the results are, and how this reproducibility is varies depending on signal strength and noise. With these parameters, an estimate of the likelihood that each ratio could have arisen if the red and green intensities are randomly drawn from a single process that produced the same distribution of intensities is produced. […]

TREK2 = experiment: Expression profiling (Agilent microarray), TREK2 gene transcription in tumor cell lines; type: cell-based, human; conditions: 24 hours
Procedure: as §1, §2, §3, §4, §5, §6, §7

Sequence of ERβ (Q92731 whole entry, species assumed): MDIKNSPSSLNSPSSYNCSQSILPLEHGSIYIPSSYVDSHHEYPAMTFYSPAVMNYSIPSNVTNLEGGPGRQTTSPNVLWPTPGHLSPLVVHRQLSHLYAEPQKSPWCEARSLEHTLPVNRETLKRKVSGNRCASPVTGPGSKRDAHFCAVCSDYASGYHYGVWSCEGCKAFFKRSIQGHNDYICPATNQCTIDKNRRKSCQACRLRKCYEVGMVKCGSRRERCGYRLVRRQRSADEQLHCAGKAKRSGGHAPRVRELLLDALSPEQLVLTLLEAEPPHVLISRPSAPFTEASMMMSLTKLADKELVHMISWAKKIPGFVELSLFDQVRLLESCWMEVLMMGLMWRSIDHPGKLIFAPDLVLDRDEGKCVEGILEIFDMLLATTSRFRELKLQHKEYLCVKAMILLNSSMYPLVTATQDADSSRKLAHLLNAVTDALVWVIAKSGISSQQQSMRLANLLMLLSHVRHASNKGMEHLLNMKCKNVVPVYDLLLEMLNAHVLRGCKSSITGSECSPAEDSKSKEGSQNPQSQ

For `COC[C@@H]1C[C@@H]2[C@H](CCC3[C@H]2CC[C@@H]3O)c2ccc(O)cc21` (stereo partly drawn) [compound 1, (6R,8S,9S,14S,17S)-6-(methoxymethyl)-7,8,9,11,12,13,14,15,16,17-decahydro-6H-cyclopenta[a]phenanthrene-3,17-diol], the “ER subtype functional profile (% of E2 activity on ERα and ERβ)” value (ERβ) was “ERβ specific agonist”, the “TREK1 Log 2 ratio treated/untreated” value (TREK1; A549, 50 μM) was 4.07/ and the “TREK1 Log 2 ratio treated/untreated” value (TREK1; A549, 100 μm) was 3.53/. The “TREK1 Log 2 ratio treated/untreated” value (TREK1; PANC1, 50 μM) was 2.05/, the “TREK1 Log 2 ratio treated/untreated” value (TREK1; PANC1, 20 μm) was 4.78/ and the “TREK1 Log 2 ratio treated/untreated” value (TREK1; PANC1, 100 μm) was 3.51/. For the same compound, the “TREK1 Log 2 ratio treated/untreated” value (TREK1; SKOV-3, 50 μM) was 2.80/, the “TREK1 Log 2 ratio treated/untreated” value (TREK1; SKOV-3, 20 μm) was 1.96/ and the “TREK1 Log 2 ratio treated/untreated” value (TREK1; SKOV-3, 100 μm) was 1.97/. For the same compound, the “TREK2 Log 2 ratio treated/untreated” value (TREK2; A549, 50 μM) was 5.37/, the “TREK2 Log 2 ratio treated/untreated” value (TREK2; A549, 20 μm) was 3.79/ and the “TREK2 Log 2 ratio treated/untreated” value (TREK2; A549, 100 μm) was 3.00/. The “TREK2 Log 2 ratio treated/untreated” value (TREK2; PANC1, 50 μM) was 4.20/, the “TREK2 Log 2 ratio treated/untreated” value (TREK2; PANC1, 20 μm) was 4.15/ and the “TREK2 Log 2 ratio treated/untreated” value (TREK2; PANC1, 100 μm) was 3.91/. The “TREK2 Log 2 ratio treated/untreated” value (TREK2; SKOV-3, 50 μM) was 5.56/, the “TREK2 Log 2 ratio treated/untreated” value (TREK2; SKOV-3, 20 μm) was 4.12/ and the “TREK2 Log 2 ratio treated/untreated” value (TREK2; SKOV-3, 100 μm) was 4.07/.
